Reference: article PMC4097363, “Trace amines inhibit insect odorant receptor function through antagonism of the co-receptor subunit” (F1000Research, 2014)
Where two headings read alike, the source gives them in different places.

Legend:
Cqui\Orco = Cqui\Orco (Culex quinquefasciatus, UniProt Q309I4); test: Antagonism of OLC12 activation of Orco in Xenopus oocytes; type: cell-based; conditions: for inhibition at 100 µM: Cqui\Orco activated by 30µM OLC12 (~EC5), 100µM of each amine, mean ± SEM, n = 3-10, read-out: inhibition of the OLC12 response; for IC50: read-out: IC 50 for inhibition of Cqui\Orco activation
Description: (§1) Follicle cells were removed by treatment with collagenase B (Boehringer Mannheim) for 2 hours at room temperature. Capped cRNA encoding each OR subunit was generated using mMessage mMachine kits (Ambion). For heteromeric ORs, 25 ng of cRNA encoding each OR subunit was injected into Stage V-VI Xenopus oocytes. For expression of Orco homomers, 50 ng of cRNA was injected. Oocytes were incubated at 18°C in Barth's saline (in mM: 88 NaCl, 1 KCl, 2.4 NaHCO 3, 0.3 CaNO 3, 0.41 CaCl 2, 0.82 MgSO 4, 15 HEPES, pH 7.6, and 150µg/ml ceftazidime) for 2–5 days prior to electrophysiological recording.
(§2) Odorant and Orco ligand induced currents were recorded under two-electrode voltage clamp, using an automated parallel electrophysiology system (OpusExpress 6000A, Molecular Devices). Oocytes were perfused with ND96 (in mM: 96 NaCl, 2 KCl, 1 CaCl 2, 1 MgCl 2, 5 HEPES, pH 7.5). Orco ligands were prepared as 50 or 100 mM stock solutions in DMSO and then diluted into ND96 on the day of the experiment. Odorants were prepared as 100 mM stock solutions in DMSO and then diluted into ND96. Unless otherwise noted, applications were for 60 sec at a flow rate of 1.0 ml/min, with extensive washing in ND96 at 4.6 ml/min between applications. Micropipettes were filled with 3 M KCl and had resistances of 0.2–2.0 MΩ. The holding potential was -70 mV. Current responses, filtered (4-pole, Bessel, low pass) at 20 Hz (-3 db) and sampled at 100 Hz, were captured and stored using OpusXpress 1.1 software (Molecular Devices).
To screen for agonist activity, oocytes were exposed to 30 sec applications of candidate compounds with 5 min washes between applications ( Figure 2A). For the concentration-response protocol ( Table 1), applications were for 20 sec at a flow rate of 1.65 ml/min. To measure antagonist activity at Orco ( Figure 2B, 2C, Figure 3, Figure 4A and Figure 5A), oocytes were exposed to two 60 sec applications of the synthetic Orco agonist OLC12 (2-((4-Ethyl-5-(4-pyridinyl)-4H-1,2,4-triazol-3-yl)sulfanyl)-N-(4-isopropylphenyl)acetamide) with 4 min washes between applications. Oocytes were then exposed to a 90 sec application of antagonist candidate, immediately followed by a 60 sec co-application of antagonist candidate and OLC12. The current response in the presence of antagonist candidate was compared to the mean of the preceding two responses to OLC12 alone and is presented as a percentage.
Initial analysis of electrophysiological data was done using Clampfit 9.1 software (Molecular Devices). Curve fitting and statistical analyses were done using Prism 5 (Graphpad). Concentration-inhibition data were fit to the equation: I = I max/(1+ (X/IC 50) ^n) where I represents the current response at a given concentration of inhibitor, X; I max is the maximal response in the absence of inhibitor; IC 50 is the concentration of inhibitor present that still allows a half maximal response from odorant; n is the apparent Hill coefficient. Concentration-response data were fit to the equation: I = I max/(1+(EC 50/X) ^n) where I represents the current response at a given concentration of odorant, X; I max is the maximal response; EC 50 is the concentration of agonist yielding a half maximal response; n is the apparent Hill coefficient. Statistical significance (p<0.05) was assessed using a two-tailed unpaired t test, an F test, or a one-way analysis of variance followed by the Dunnett's post-test, as appropriate.

Onub\Orco+Onub\Or6 = test: Inhibition of odorant activation of heteromeric OR in Xenopus oocytes; type: cell-based, Ostrinia nubilalis; conditions: activated by 1µM Z11-14:OAc; 10µM tryptamine or 100µM tyramine
Description: as §1
as §2, with “Current responses, filtered (4-pole, Bessel, low pass) at 20 Hz (-3 db) and sampled at 100 Hz, were captured and stored using OpusXpress 1.1 software (Molecular Devices).” left out

Mcar\Orco+Mcar\Or5 = test: as above; type: cell-based, Megacyllene caryae; conditions: activated by 150µM 2-phenylethanol; 10µM tryptamine or 100µM tyramine
Description: as §1
as §2, with “Current responses, filtered (4-pole, Bessel, low pass) at 20 Hz (-3 db) and sampled at 100 Hz, were captured and stored using OpusXpress 1.1 software (Molecular Devices).” left out

Agam\Orco+Agam\Or39 = test: as above; type: cell-based, Anopheles gambiae; conditions: activated by 10µM 6-methyl-5-hepten-2-one; 10µM tryptamine or 100µM tyramine
Description: as §1, §2
To measure inhibition of odorant activation of heteromeric ORs ( Figures 4B, 4C, Figure 5B and Figure 6), oocytes were exposed to a 30 sec application of odorant followed by a 10 min wash. Oocytes were then exposed to a 90 sec application of tryptamine or tyramine, immediately followed by a 30 sec co-application of tryptamine or tyramine and odorant. The current response in the presence of antagonist candidate was compared to the preceding response to odorant alone and expressed as a percentage. […] For this reason, we then re-normalized antagonism data to the value obtained when the assay was run in the absence of antagonist candidate (sham). In the “sham” assay, oocytes were exposed to a 30 sec application of odorant followed by a 10 min wash and then exposed to a 90 sec application of ND96 (no antagonist candidate), immediately followed by a 30 sec application of odorant. The second odorant response was compared to the first response and expressed as a percentage. In Figure 4B, 4C, Figure 5B and Figure 6, the sham value for 100nM eugenol was 57 ± 3% (mean ± SEM, n = 3). In Figure 5B, the sham value for 10nM eugenol was 93 ± 4% (n = 4). In Figure 4B and C, the sham value for 1µM Z11-14:OAc was 82 ± 6% (n = 6) and the sham value for 150µM 2-phenylethanol was 92 ± 2% (n = 3). In Figure 6, the sham value for 3µM L-fenchone was 83 ± 1% (n = 3), the sham value for 40µM acetophenone was 92 ± 1% (n = 3), the sham value for 70µM geranyl acetate was 97 ± 1% (n = 3), the sham value for 10µM 6-methyl-5-hepten-2-one was 94 ± 2% (n = 3) and the sham value for 3µM 2-nonanone was 81 ± 1% (n = 3).

Agam\Orco+Agam\Or48 = target: T1, Agam\Orco+Agam\Or48 (Anopheles gambiae, UniProt Q7QCC7); test: as above; type: cell-based; conditions: activated by 3µM 2-nonanone; 10µM tryptamine or 100µM tyramine
T1 sequence (Q7QCC7 1-478): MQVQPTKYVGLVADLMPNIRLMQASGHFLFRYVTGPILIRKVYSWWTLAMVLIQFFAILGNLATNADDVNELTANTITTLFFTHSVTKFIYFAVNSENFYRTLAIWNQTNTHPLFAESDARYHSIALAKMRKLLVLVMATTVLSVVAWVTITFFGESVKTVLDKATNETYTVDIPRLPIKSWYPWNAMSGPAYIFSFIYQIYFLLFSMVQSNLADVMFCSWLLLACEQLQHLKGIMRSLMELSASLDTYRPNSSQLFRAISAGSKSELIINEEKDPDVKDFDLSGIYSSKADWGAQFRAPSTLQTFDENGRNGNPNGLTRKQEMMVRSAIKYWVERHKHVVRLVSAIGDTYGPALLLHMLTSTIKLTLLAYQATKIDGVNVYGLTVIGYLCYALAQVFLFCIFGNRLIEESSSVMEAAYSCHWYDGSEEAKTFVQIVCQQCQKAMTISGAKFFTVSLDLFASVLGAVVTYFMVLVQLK
Description: as §1
as §2, with “Current responses, filtered (4-pole, Bessel, low pass) at 20 Hz (-3 db) and sampled at 100 Hz, were captured and stored using OpusXpress 1.1 software (Molecular Devices).” left out

Sequence of Cqui\Orco (Q309I4 entry or part of it): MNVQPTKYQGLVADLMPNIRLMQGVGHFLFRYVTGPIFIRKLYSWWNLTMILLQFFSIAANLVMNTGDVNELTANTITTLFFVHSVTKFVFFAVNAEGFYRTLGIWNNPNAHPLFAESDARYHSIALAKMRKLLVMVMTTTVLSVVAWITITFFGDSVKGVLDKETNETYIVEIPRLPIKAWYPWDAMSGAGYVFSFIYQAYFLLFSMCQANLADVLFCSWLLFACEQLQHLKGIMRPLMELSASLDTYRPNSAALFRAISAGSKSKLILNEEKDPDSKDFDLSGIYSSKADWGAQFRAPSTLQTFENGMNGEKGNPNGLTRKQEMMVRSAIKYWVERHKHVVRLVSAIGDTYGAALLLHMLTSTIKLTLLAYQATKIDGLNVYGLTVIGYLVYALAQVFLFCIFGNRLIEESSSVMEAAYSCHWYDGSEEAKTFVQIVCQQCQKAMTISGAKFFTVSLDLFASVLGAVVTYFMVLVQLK

Structure (SMILES)	inhibition at 100 µM (Cqui\Orco) [%]	inhibition of OLC12 activation of Orco (Cqui\Orco; Cqui\Orco, 30µM OLC12, 10µM tryptamine)	mechanism of antagonism of Cqui\Orco (Cqui\Orco; OLC12 increased from 30µM to 100µM)	IC50 (Cqui\Orco; activated by 30µM OLC12) [µM]	IC50 (Cqui\Orco; activated by 100µM OLC12) [µM]	inhibition of odorant activation of the OR (Onub\Orco+Onub\Or6)	inhibition of odorant activation of the OR (Mcar\Orco+Mcar\Or5)	inhibition of odorant activation of the OR (Agam\Orco+Agam\Or39)	inhibition of odorant activation of the OR (Agam\Orco+Agam\Or48)	less potent than tryptamine (IC50 ratio) (Cqui\Orco; Cqui\Orco activated by 30µM OLC12) [fold]
NCCc1c[nH]c2ccccc12 [tryptamine]	92 ± 2	inhibited OLC12 activation of Orco from each of these three insect species	competitive antagonist	4.7 ± 0.7	143 ± 18	substantial inhibition of each receptor	substantial inhibition of each receptor	able to inhibit odorant activation of the receptor	able to inhibit odorant activation of the receptor	–
NCCc1ccc(O)cc1 [tyramine]	40 ± 5	–	–	157 ± 22	–	able to reduce odorant activation of these ORs, but was less effective than tryptamine	able to reduce odorant activation of these ORs, but was less effective than tryptamine	able to inhibit odorant activation of each of these receptors, but was less effective than tryptamine	able to inhibit odorant activation of each of these receptors, but was less effective than tryptamine	33
